Assay results: PMC6691772, “Novel phthalimide based analogues: design, synthesis, biological evaluation, and molecular docking studies” (Journal of Enzyme Inhibition and Medicinal Chemistry, 2019)
Values after ≈ are worked out from the molar mass of the structure shown.

Assays:
A. fumigatus RCMB 002568 [1] = assay: Agar well diffusion, inhibition zone; format: cell-based, Aspergillus fumigatus; design: key to Mean diameter of inhibition zone (Mean ± SEM): –: -: No activity under the screening conditions; settings: mean of three values; for Mean diameter of inhibition zone (Mean ± SEM): 1 mg/mL; for zone of inhibition at 1000 µg/mL: Aspergillus fumigatus, RCMB002568, 1 mg/mL, read-out: Mean diameter of inhibition zone (Mean ± SEM)
B. subtilis RCMB 010067 [2] = assay: Agar well diffusion, inhibition zone; format: cell-based, Bacillus subtilis; design: key to Mean diameter of inhibition zone (Mean ± SEM): –: -: No activity under the screening conditions; settings: mean of three values; for Mean diameter of inhibition zone (Mean ± SEM): 1 mg/mL; for zone of inhibition at 1000 µg/mL: Bacillus subtilis, RCMB010067, 1 mg/mL, read-out: Mean diameter of inhibition zone (Mean ± SEM)
S. pneumonia RCMB 010010 [3] = assay: Agar well diffusion, inhibition zone; format: cell-based, Streptococcus pneumoniae; design: key to Mean diameter of inhibition zone (Mean ± SEM): –: -: No activity under the screening conditions; settings: mean of three values; for Mean diameter of inhibition zone (Mean ± SEM): 1 mg/mL; for zone of inhibition at 1000 µg/mL: Streptococcus pneumoniae, RCMB010010, 1 mg/mL, read-out: Mean diameter of inhibition zone (Mean ± SEM)
C. albicans RCMB 005036 = assay: Agar well diffusion, inhibition zone; format: cell-based, Candida albicans; design: key: –: -: No activity under the screening conditions; settings: 1 mg/mL, mean of three values
[4] = system: P. aeruginosa RCMB 010043; assay: Agar well diffusion, inhibition zone; format: cell-based, Pseudomonas aeruginosa; design: key to Mean diameter of inhibition zone (Mean ± SEM): –: -: No activity under the screening conditions; settings: mean of three values; for zone of inhibition at 1000 µg/mL: Pseudomonas aeruginosa, RCMB010043, 1 mg/mL, read-out: Mean diameter of inhibition zone (Mean ± SEM); for Mean diameter of inhibition zone (Mean ± SEM): 1 mg/mL
E. coli RCMB 010052 [5] = assay: Agar well diffusion, inhibition zone; format: cell-based, Escherichia coli; design: key to Mean diameter of inhibition zone (Mean ± SEM): –: -: No activity under the screening conditions; settings: mean of three values; for zone of inhibition at 1000 µg/mL: Escherichia coli, RCMB010052, 1 mg/mL, read-out: Mean diameter of inhibition zone (Mean ± SEM); for Mean diameter of inhibition zone (Mean ± SEM): 1 mg/mL
A. fumigatus RCMB 002568 [6] = assay: Minimum inhibitory concentration, modified agar well diffusion; format: cell-based; settings: Aspergillus fumigatus, RCMB002568, mean of three values, read-out: MIC (Mean ± SEM)
[7] = system: P. aeruginosa RCMB 010043; assay: as above; format: cell-based; settings: Pseudomonas aeruginosa, RCMB010043, mean of three values, read-out: MIC (Mean ± SEM)
E. coli RCMB 010052 [8] = assay: as above; format: cell-based; settings: Escherichia coli, RCMB010052, mean of three values, read-out: MIC (Mean ± SEM)
[9] = system: tested bacterial and fungal strains; assay: Antimicrobial screening, summary over all tested strains; format: cell-based; settings: 1 mg/mL
Source text: All bacterial and fungal strains were received from the culture collection of the Regional Center for Mycology and Biotechnology (RCMB), Al-Azhar University, Cairo, Egypt. All target derivatives were screened in-vitro opposite to various kinds of bacteria, Gram-positive bacteria (Streptococcus pneumoniae and Bacillus subtilis) and Gram-negative bacteria (Pseudomonas aeruginosa and Escherichia coli) and for their Antifungal activities against Aspergillus fumigatus and Candida albicans, respectively. Ampicillin and gentamycin were used as standard antibacterial drugs while amphotericin B was used as reference antifungal drug. The diameter of inhibition zone (mm) was measured for the biological activity using the diffusion technique. The promising compounds were further investigated to evaluate their antimicrobial activity expressed in terms of minimum inhibitory concentration (MIC) using the modified agar well diffusion method.
The newly prepared targets were subjected for in-vitro antibacterial screening against Gram-positive bacteria (Streptococcus pneumonia and Bacillus subtilis) and Gram-negative bacteria (Pseudomonas aeruginosa and Escherichia coli). […] The compounds’ solutions of concentrations (1 mg/mL) were evaluated against the different microorganism’s and the inhibition zone (IZ) used diameter in mm for the biologically activity (agar well diffusion method).

[10] = system: human liver cancer cell line (HepG-2); assay: MTT anticancer assay; format: cell-based; settings: HepG2, HePG-2 cancer liver cell line, mean of three values, read-out: IC50 (Mean ± SEM)
[11] = system: (THLE-2) normal liver cell line; assay: Cytotoxic screening on normal liver cells; format: cell-based; settings: Homo sapiens, mean of three values, read-out: IC50 (Mean ± SEM)
S. pneumonia RCMB 010010 [12] = assay: Minimum inhibitory concentration, modified agar well diffusion; format: cell-based; settings: Streptococcus pneumoniae, RCMB010010, mean of three values, read-out: MIC (Mean ± SEM)
B. subtilis RCMB 010067 [13] = assay: as above; format: cell-based; settings: Bacillus subtilis, RCMB010067, mean of three values, read-out: MIC (Mean ± SEM)

Row | MIC (A. fumigatus RCMB 002568 [6]) | MIC [7] | MIC (E. coli RCMB 010052 [8]) | IC50 [10] | melting point | MIC (S. pneumonia RCMB 010010 [12]) | MIC (B. subtilis RCMB 010067 [13]) | SMILES | Mean diameter of inhibition zone (Mean ± SEM) (A. fumigatus RCMB 002568 [1]) | Mean diameter of inhibition zone (Mean ± SEM) (B. subtilis RCMB 010067 [2]) | Mean diameter of inhibition zone (Mean ± SEM) (S. pneumonia RCMB 010010 [3]) | Mean diameter of inhibition zone (Mean ± SEM) (C. albicans RCMB 005036) | zone of inhibition at 1000 µg/mL [4] | zone of inhibition at 1000 µg/mL (E. coli RCMB 010052 [5]) | zone of inhibition at 1000 µg/mL (B. subtilis RCMB 010067 [2]) | zone of inhibition at 1000 µg/mL (S. pneumonia RCMB 010010 [3]) | Mean diameter of inhibition zone (Mean ± SEM) [4] | Mean diameter of inhibition zone (Mean ± SEM) (E. coli RCMB 010052 [5]) | antimicrobial activity, overall [9] | IC50 [11] | zone of inhibition at 1000 µg/mL (A. fumigatus RCMB 002568 [1])
1 | 1.95 ± 0.03 µg/mL (≈ 4.08 µM) |  |  |  |  |  |  | CNC(C)C1CCC(N)C(OC2C(N)CC(N)C(OC3OCC(C)(O)C(NC)C3O)C2O)O1 (centres unmarked) [Gentamycin, reference compound] | – | – | – | – | 19.7 ± 0.6 mm | 24.9 ± 1.5 mm |  |  |  |  |  |  | 
2 |  | 3.9 ± 0.15 µg/mL (≈ 11.2 µM) | 0.98 ± 1.05 µg/mL (≈ 2.8 µM) |  |  |  |  | CC1(C)S[C@@H]2[C@H](NC(=O)[C@H](N)c3ccccc3)C(=O)N2[C@H]1C(=O)O [Ampicillin, reference compound] | – |  |  | – |  |  | 26.4 ± 0.5 mm | 23.8 ± 0.71 mm | – | – |  |  | 
3 | 3.9 ± 1 µg/mL (≈ 11.2 µM) | 62.5 ± 1.06 µg/mL (≈ 179 µM) | 3.9 ± 0.03 µg/mL (≈ 11.2 µM) | 9.11 ± 1.02 µg/mL (≈ 26.2 µM) | 302 °C | 7.81 ± 1.01 µg/mL (≈ 22.4 µM) | 0.98 ± 1.18 µg/mL (≈ 2.81 µM) | N#Cc1cnc2c(N=NN3C(=O)c4ccccc4C3=O)c(O)nn2c1N [Compound 12, 7-Amino-3-[(1,3-dioxo-1,3-dihydro-2H-isoindol-2-yl)diazenyl]-2-hydroxy-pyrazolo[1,5-a]pyrimidine-6-carbonitrile] |  |  |  | – | 15.8 ± 1.5 mm | 21.8 ± 1.3 mm | 24.3 ± 0.6 mm | 18.6 ± 1.2 mm |  |  |  | 793.56 ± 0.31 µg/mL (≈ 2280 µM) | 20.7 ± 1.2 mm
4 |  |  |  | 14.4 ± 0.37 µg/mL (≈ 46.3 µM) | 180 to 182 °C |  |  | NC1=Nc2c(N=NN3C(=O)c4ccccc4C3=O)c(O)nn2C1 [Compound 6, 2-((2-Amino-6-hydroxy-3H-imidazo[1,2-b]pyrazol-7-yl)diazenyl)isoindoline-1,3-dione] | – |  |  | – | 11.9 ± 1.3 mm | 16.3 ± 0.5 mm | 17.8 ± 1.2 mm | 20.8 ± 1.5 mm |  |  |  | 652.46 ± 0.03 µg/mL (≈ 2100 µM) | 
5 | 1.95 ± 0.34 µg/mL (≈ 4.94 µM) | 15.6 ± 0.26 µg/mL (≈ 39.6 µM) | 0.49 ± 1.08 µg/mL (≈ 1.24 µM) | 5.6 ± 1.57 µg/mL (≈ 14.2 µM) | 210 to 211 °C | 3.9 ± 0.2 µg/mL (≈ 9.89 µM) | 1.95 ± 1.3 µg/mL (≈ 4.94 µM) | CSc1c(C#N)c(N)nc2c(N=NN3C(=O)c4ccccc4C3=O)c(O)nn12 [Compound 9, 5-Amino-3-((1,3-dioxo-1,3-dihydro-2H-isoindol-2-yl)diazenyl)-2-hydroxy-7-(methylthio)pyrazolo[1,5-a]pyrimidine-6-carbonitrile] |  |  |  | – | 17.2 ± 1.3 mm | 24 ± 1.3 mm | 23.2 ± 1.5 mm | 22.2 ± 0.6 mm |  |  |  | 754.31 ± 0.2 µg/mL (≈ 1910 µM) | 16.6 ± 1.3 mm

Row | SMILES | MIC (A. fumigatus RCMB 002568 [6]) | MIC [7] | MIC (E. coli RCMB 010052 [8]) | IC50 [10] | melting point | MIC (S. pneumonia RCMB 010010 [12]) | MIC (B. subtilis RCMB 010067 [13]) | Mean diameter of inhibition zone (Mean ± SEM) (A. fumigatus RCMB 002568 [1]) | Mean diameter of inhibition zone (Mean ± SEM) (B. subtilis RCMB 010067 [2]) | Mean diameter of inhibition zone (Mean ± SEM) (S. pneumonia RCMB 010010 [3]) | Mean diameter of inhibition zone (Mean ± SEM) (C. albicans RCMB 005036) | zone of inhibition at 1000 µg/mL [4] | zone of inhibition at 1000 µg/mL (E. coli RCMB 010052 [5]) | zone of inhibition at 1000 µg/mL (B. subtilis RCMB 010067 [2]) | zone of inhibition at 1000 µg/mL (S. pneumonia RCMB 010010 [3]) | Mean diameter of inhibition zone (Mean ± SEM) [4] | Mean diameter of inhibition zone (Mean ± SEM) (E. coli RCMB 010052 [5]) | antimicrobial activity, overall [9] | IC50 [11] | zone of inhibition at 1000 µg/mL (A. fumigatus RCMB 002568 [1])
6 | Nc1c(C(=O)c2ccccc2)cnc2c(N=NN3C(=O)c4ccccc4C3=O)c(O)nn12 [Compound 14, 2-[(7-Amino-6-benzoyl-2-hydroxypyrazolo[1,5-a]pyrimidin-3-yl)diazenyl]-1H-isoindole-1,3(2H)-dione] |  |  |  | 34.8 ± 1.26 µg/mL (≈ 81.4 µM) | 295 to 297 °C |  |  | – | – | – | – |  |  |  |  | – | – | no antimicrobial activities | 725.44 ± 0.15 µg/mL (≈ 1700 µM) | 
